In paper PMC5805504 (Oncotarget, 2017):

Experiments:
[1] = test system: pSMAD in 13762 rat mammary carcinoma tumor; test: 13762 rat tumor model, pSMAD in tumor tissue; format: in vivo, Fischer 344 rats; settings: Table 4, read-out: IC50 of pSMAD (%CV)
Procedure: Fischer 344 rats from Taconic Farms weighing 150 to 160 grams were acclimatized for 1 week prior to study initiation and had ad libitum access to food. Rats were shaved in the implant area then given a subcutaneous flank injection of 5 × 10^6 13762 rat mammary carcinoma cells in a 1:1 (v/v) mixture with Matrigel in media. […] Tumor, PBMCs, and plasma were collected at 0.5, 1, 1.5, 2, 4, 8, 16, and 24 hours for further analysis.
For correlation of pSMAD modulation in 13762 rat mammary carcinoma tumors and PBMCs, data were normalized using an analysis of co-variance of log pSMAD versus log tSMAD and treatment group. The slope (b) from this analysis was used to normalize the pSMAD values using pSMAD/(tSMAD)^b. Percent inhibition was calculated by the following formula: 100-(y/x)*100 where y = normalized pSMAD value and x = mean normalized pSMAD in the vehicle control. Linear correlation was used to compare tumor and PBMC measurements. In addition, using a cutoff of 50%, a 2 × 2 contingency table analysis was performed using Fisher's exact test.

[2] = clinical; cited from earlier work
[3] = test system: pSMAD in Calu6 and EMT6-LM2 tumors; test: PK/PD profile from Calu6 and EMT6-LM2 in vivo target inhibition studies (statements not split by model); set-up: species or system mice
[4] = test system: BMP ligand (SMAD1/5/8-responsive promoter); test: Cell based luciferase reporter assay (SMAD1/5/8), BMP4-stimulated HEK293_SMAD1/5/8 cells; settings: Homo sapiens; BMP4 20 nM stimulated HEK293_SMAD1/5/8
[5] = set-up: method as in earlier work; settings: patients with pancreas cancer; cited from earlier work
[6] = in vivo; settings: female, BALB/c, mouse, plasma, po, 25 mg/kg
Procedure: (§1) For in vivo measurement of tumor cell pSMAD activity, tumors were harvested from mice at the indicated time points post-treatment, snap frozen in liquid nitrogen, then pulverized in lysis buffer [EDTA 5 mM, EGTA 5 mM, sodium pyrophosphate 30 mM, sodium chloride 6.7 mM, sodium fluoride 50 mM, and 1% triton in water, pH 7.4 with protease and phosphatase inhibitors (Sigma, p8340, p5726, p0044) and sodium orthovanadate 2.5 mM]. Protein concentration was estimated with DC protein assay kit (BioRad).
(§2) Percent inhibition of normalized pSMAD2 levels was calculated by first determining the ratio of tSMAD to pSMAD values for the vehicle group. […] Percent inhibition for compound treated groups was determined relative to the minimum pSMAD inhibition of the vehicle group using the formula: [(100- (normalized pSMAD in the experimental treatment group/normalized pSMAD in the vehicle treated group)]. IC50 of pSMAD inhibition was calculated for the data using non-linear regression to fit the standard four parameter logistic model using GraphPad Prism 6.
(§3) Female athymic nu/nu mice or immune competent syngenic BALB/c mice (Charles River or Taconic Farms, respectively, 22 to 28 grams) were maintained in microisolator cages, received food and water ad libitum, and were quarantined for 1 week before experimental manipulation. Sub-confluent Calu6 human non-small cell lung cancer (NSCLC) cells were injected subcutaneously in the flank of nude mice (1x 10^7cells/per animal) in 0.2 mL of culture medium mixed with Matrigel (BD Biosciences, 1:1 v/v). EMT6-LM2 murine triple negative breast cancer tumor cells (5 × 10^5 cells/per animal in the absence of matrigel) were implanted on the flank of BALB/c mice. EMT6-LM2 cells were generated from parental EMT6 cells which were passaged twice from spontaneous lung metastases (LM) following subcutaneous growth. When the tumor volume reached ~250 mm^3, mice were randomized and separated into treatment groups.
(§4) Tumors and plasma were collected 2 hours post dosage for analysis of pSMAD and compound levels.
(§5) Tumors and plasma were collected at the indicated time points (0.5, 1, 1.5, 2, 4, 8, and 16 hours) for analysis of pSMAD and compound levels.
(§6) Percent target inhibition was calculated as described above then was modeled as a function of either dose or plasma concentration.

[7] = test system: murine NK and CD8+ T cells; test: TGFβ suppression of murine NK and CD8+ T cell cytokine secretion; format: cell-based, BALB/c mice; settings: TGFβ1 10 ng/ml, 0.1 μM to 10 μM, ELISA
Procedure: Mouse NK cells and CD8^+ T cells were purified from female BALB/C mouse splenocytes by magnetic antibody sorting (Miltenyi Biotec) following the manufacturer's instructions. After isolation, the cells were re-suspended separately in complete media (RPMI1640, 5% FBS, 10 mM HEPES, 1×NEAA, 1×L-Glu, sodium pyruvate, 1×Penn/Strep, 0.055 mM βME, 50 U/ml IL2) and plated in flat 96-well plates at 37°C for 5-7 days at a density of 5 × 10^4/well, in triplicate, and stimulated with Treg Suppression Inspector beads (Miltenyi Biotec, Cat# 130-093-627). Cells were cultured with or without TGFβ1 at 10 ng/ml. […] Cytokine release in supernatants was measured by ELISA (R&D, mouse Granzyme B: DY1865; mouse INFγ:3321-1H-6). One-way ANOVA with Dunnett's test was used to compare the TGFβ+Gal treatments to the TGFβ+DMSO treatment.

[8] = test system: KPC-M09 cells; test: E-Cadherin assay / TGFβ1-mediated EMT in KPC-M09 cells; format: cell-based, mouse; settings: 30 ng/ml TGFβ plus 2 μM or 10 μM, 48 hours
Text: The primary mouse pancreatic ductal adenocarcinoma (PDAC) cell line KPC-M09 was derived from a pancreatic GEMM [KrasLSL-G12D/+; Trp53LSL-R172H/+; Ptf1aCre/+ (KPC)]. […] Cell morphological changes were imaged at 20X (bright field). Cells were stained with an anti-E-cadherin primary Ab (Cell Signaling, clone 24E10, diluted 1:200) followed with a secondary anti-rabbit Cy3 (Cell Signaling, diluted 1:500). DAPI was used as a counter stain and cells were imaged at 40X.

[9] = in vivo; settings: female, athymic nu/nu, mouse, plasma, po, 75 mg/kg
Procedure: as §1, §2, §3, §4, §5, §6

[10] = patients with myelodysplastic syndrome; cited from earlier work

Cc1cccc(-c2nn3c(c2-c2ccnc4ccc(C(N)=O)cc24)CCC3)n1.O [galunisertib, 4-[2-(6-methylpyridin-2-yl)-5,6-dihydro-4H-pyrrolo[1,2-b]pyrazol-3-yl]quinoline-6-carboxamide monohydrate]
IC50 [1]: 719 nM
tolerability as oral cancer therapy [2]: well-tolerated
TED90 ([3]; oral, data not shown): 75 mg/kg
target inhibition in vivo over 12 hours ([3]; single oral dose with an exposure of […]-5 μM): ≥ 20%
IC50 [4]: > 10000 nM
clinical outcome versus gemcitabine, phase II [5]: superiority over gemcitabine
Tmax [6]: 30 min
TGFβ1 suppression of IFNγ and granzyme B secretion [7]: prevented the suppression of IFNγ and granzyme B secretion
TGFβ1-mediated EMT (epithelial morphology, membrane E-cadherin) [8]: prevented TGFβ1-mediated EMT
Tmax [9]: 30 min
clinical activity, phase II [10]: clinical activity
